Read-outs that look alike come from different tables or passages of the source.

Assay [1] concerns Calu-6 human lung cancer xenograft. Type of assay: in vivo. Conditions: day 32 after inoculation. As to the method:
The Calu-6 human lung carcinoma cell line was purchased from American Type Culture Collection (MD, U.S.A.). The cells were cultured in Eagle's MEM (Sigma-Aldrich corporation, MO, U.S.A.) supplemented with 0.1 milli mol/L Non-essential amino acids (Invitrogen corporation, CA, U.S.A.), 1 milli mol/L sodium pyruvate (Invitrogen corporation, CA, U.S.A.), and 10% (v/v) fetal bovine serum (Roche Diagnostics KK, Tokyo, Japan).
60 of 5-week-old male athymic nude mice (BALB/c nu/nu) were purchased from Charles River Japan, Inc. (Yokohama, Japan). All mice were kept for 8 days in the animal facility of Kamakura Research Laboratories of Chugai Pharmaceutical Co., Ltd. before subjection to the experiment.
The title compound was synthesized at Kamakura Research Laboratories of Chugai Pharmaceutical Co., Ltd. Irinotecan (Topotecin™, lot. No. EQAZF13) was obtained from Daiichi Pharmaceutical Co., Ltd. (Tokyo, Japan). The title compound was dissolved in dimethyl sulfoxide (DMSO) and diluted into 2.5 % DMSO solution with saline (For Injection; Ohtsuka Pharmaceutical Industry Co., Ltd., Tokushima, Japan) at the date of administration. Irinotecan was diluted with saline at the date of administration.
The in vivo evaluation procedure for anticancer drugs was based on the methods described by Plowman, et al. (1997) for xenograft models. See, “Anticancer Drug Development Guide: Preclinical Screening, Clinical Trials, and Approval, Teicher B (ed) pp. 101-125, specifically Chap. 6, “Human Tumor Xenograft Models in NCI Drug Development”, hereby incorporated by reference. A single cell suspension of Calu-6 (5.7×10^6 cells per mouse) was inoculated subcutaneously into the right flank of each mouse. The tumor volume was estimated by using the equation ab^2/2, where a and b represent tumor length and width, respectively. Mice bearing tumors of between 181 and 326 mm^3 were selected on day 11 after tumor inoculation and were randomly divided into 10 groups, consisting of 5 mice each. […] Drug administration was initiated after mice were randomized and divided into groups. The tide compound (0.375 mg/kg; 0.75 mg/kg; 1.5 mg/kg or 3 mg/kg), irinotecan (80 mg/kg) and each vehicles were administered intravenously. Tumor volume and body weight of each mouse were measured twice a week. […] Tumor growth inhibition was calculated by using the equation (1-ΔT/ΔC)×100, where ΔT represents the tumor volume difference from the initial treatment date of treated group and ΔC represents the tumor volume difference from the initial treatment date of vehicle group.

Assay [2] has as its system KPL-4 human breast carcinoma xenograft. Briefly: Antitumor activity in KPL-4 orthotopic xenograft in athymic nude mice, combination with pertuzumab (Example 2). The class given is in vivo. Conditions: monotherapy 3, 4 or 6 mg/kg; day 21. Here is the method: The KPL-4 human breast carcinoma cell line was kindly donated by Prof. Kurebayashi, Kawasaki Medical Center. The cells were cultured in Dulbecco's MEM (Sigma Chemical Co.) supplemented with 5% (v/v) fetal bovine serum (Roche Diagnostics).
One hundred (100) 5-week-old female athymic nude mice (BALB/c nu/nu) were purchased from Charles River Japan, Inc. (Yokohama, Japan). The mice were housed in an air-conditioned room (temperature 22±2° C., relative humidity 55±10%) under 12 h light/dark cycles. The mice were given sterilized CE-2 and tap water with 25μg/mL gentamycin ad libitum. […]
The In vivo evaluation procedure for anticancer drugs was based on methods described by Plowman, et al. (1997) for xenograft models. […] The tumor volume and body weight of each mouse were measured twice a week. […] One week after the final injection, tumor growth inhibition (TGI) was calculated using the formula (1-T/C)×100 (%), where T (treated group) and C (control group) represent the mean tumor volume change. ED50 values were calculated from values of tumor growth inhibition on day 21 using the XL fit program. […]
Packaged software (SAS preclinical package version 5.0, SAS Institute Japan, Ltd.) was used for the statistical analysis. […] ED50s were calculated from values of tumor growth inhibition percentage using XL fit program #509 (MS Excel Add-In: XLfit3 Version 3.0.5 Build 12, ID Business Solutions Ltd.)

`CC[C@H](C)[C@@H]([C@@H](CC(=O)N1CCC[C@H]1[C@H](SC)[C@@H](C)C(=O)N(C)CCc1cccc(O)c1)OC)N(C)C(=O)[C@@H](NC(=O)[C@H](C(C)C)N(C)C)C(C)C` [compound of formula (I-A), N-[1-({1-sec-Butyl-4-[2-(2-{[2-(3-hydroxy-phenyl)-ethyl]-methyl-carbamoyl}-1-methylsulfanyl-propyl)-pyrrolidin-1-yl]-2-methoxy-4-oxo-butyl}-methyl-carbamoyl)-2-methyl-propyl]-2-dimethylamino-3-methyl-butyramide]: the tumor growth inhibition is given as 11% in assay [1] (0.375 mg/kg i.v. weekly x3), 21% in assay [1] (0.75 mg/kg i.v. weekly x3), 41% in assay [1] (1.5 mg/kg i.v. weekly x3) and 117% in assay [1] (3 mg/kg i.v. weekly x3). For the same compound, the “volume of tumor in comparison with control” value in assay [2] is reported as “decreased strongly”.

The values are drawn from patent publication US20060292158A1, “Method for the treatment of cancer using a novel pharmaceutical composition containing at least one dolastatin 10 derivative” (priority 2004, published 2006).
